According to US20110301079A1, “NEUROMEDIN U RECEPTOR AGONISTS AND USES THEREOF” (Instituto di Ricerche di Biologia Molecolare P. Angeletti …, priority 2007, published 2011):

Experiments:
Assay type in all cases: cell-based
[1] = biological target: T1, mouse NMUR2 (Mus musculus, UniProt Q8BZ39); assay: FLIPR calcium mobilization assay, mouse NMUR2 cell line
T1 construct: expressed in transfected cells; host or cells: FLP-In CHO cells and HEK-293 FLP-In cells (pcDNA5)
Source text: (§1) Human, mouse or rat cDNAs encoding NMUR1 or NMUR2 (as described in Howard et al. Nature 406: 70-74 (2000) were subcloned in pcDNA5 (Invitrogen) and transfected into FLP-In CHO cells and HEK-293 FLP-In cells purchased from Invitrogen (Carlsbad, Calif.) using lipofectamine (Invitrogen). The Flp-In system allows integration and expression of a particular gene of interest at a specific genomic location utilizing the Flp recombinase from yeast. The transfected cells were selected by growth in medium containing 200 μg/mL hygromycin (Invitrogen). Populations were frozen at early passage numbers, and these stocks were used for further studies. Stable clones that expressed the mRNAs were identified functionally by FLIPR as well as by RT-PCR. […] Two different rodent NMUR1 cell lines were thus generated: one with the codon as predicted from the genomic databases and another cell line with an engineered methionine (ATG) as the start codon. The dog NMU receptors were also cloned from intestine RNA (NMUR1) and brain (NMUR2) and stable cell lines were generated as used for the human and rodent cell lines. […] To ensure high levels of expression in a heterologous system, a dog NMUR1 cell line was generated that contains an ATG as the start codon. Additionally, stable cell lines expressing the human receptors were generated in HEK-293/aeq 17 cells which stably express the aequorin gene under the CMV promoter. The human NMUR2 cDNA was cloned into pcDNA3.1 and human NMUR1 was subcloned into pIRES-puro (Clontech, Mountain View, Calif.), after transfection cells were selected in media containing G418 and either hygromycin (NMUR2) or puromycin (NMUR1).
(§2) The NMU receptors signal primarily through Gαq/11 proteins; therefore calcium mobilization assays can be utilized for functional activity.
(§3) Stable cell lines expressing human and or rodent NMUR1 or human NMUR2 receptors are plated at a density of 12,000 cells per well overnight on poly-lysine coated 384-well black-walled plates. The following day, the media is removed from the plates and the cells were subsequently loaded with Fluo-3 (Molecular Probes), a calcium sensitive dye, diluted in FLIPR buffer (1× Hank's buffered saline containing 20 mM HEPES, 0.1% BSA, 2.5 mM probenecid (Sigma) and 1.6 mM TR40). All reagents are from Invitrogen unless otherwise noted. Peptide stocks are resuspended in DMSO at a stock concentration of 2 mM and diluted in FLIPR buffer on the day of the experiment to a 4 μM working stock solution.
(§4) After a 90 minute incubation at room-temperature, cell plates are loaded onto a FLIPR (Molecular Devices) to monitor cellular fluorescence (excitation=488 nm; emission=540 nm) before and after compound/peptide addition. Eight to twelve point dose responses are tested on NMUR-expressing cell lines using FLIPR with 1 μM peptide as the highest dose. The response after peptide addition is taken as the maximum fluorescence units minus the fluorescence immediately prior to stimulation for each well. EC50 values are calculated using GraphPad Prism (San Diego, Calif.) software.
(§5) Percent activity refers to the maximum response at 1 μM compared to the human NMU-25 response at the same concentration.

[2] = biological target: T2, human NMUR1 (Homo sapiens, UniProt Q9HB89); assay: FLIPR calcium mobilization assay, human NMUR1-expressing cell line
T2 construct: expressed in transfected cells; host or cells: FLP-In CHO cells and HEK-293 FLP-In cells (pcDNA5)
T2 sequence (Q9HB89 1-426): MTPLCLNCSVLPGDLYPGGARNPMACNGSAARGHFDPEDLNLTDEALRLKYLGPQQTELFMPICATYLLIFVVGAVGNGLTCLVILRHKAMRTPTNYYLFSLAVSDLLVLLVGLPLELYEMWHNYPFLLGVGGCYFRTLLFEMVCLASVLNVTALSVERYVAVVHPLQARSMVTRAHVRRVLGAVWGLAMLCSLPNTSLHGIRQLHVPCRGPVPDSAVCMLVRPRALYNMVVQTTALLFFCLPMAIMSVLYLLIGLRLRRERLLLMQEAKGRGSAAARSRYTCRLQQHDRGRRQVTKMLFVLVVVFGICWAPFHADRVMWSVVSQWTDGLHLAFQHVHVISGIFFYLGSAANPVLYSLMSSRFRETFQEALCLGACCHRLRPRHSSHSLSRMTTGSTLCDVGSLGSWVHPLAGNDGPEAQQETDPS
Source text: as §1, §2, §3, §4, §5

[3] = biological target: T3, human NMUR2 (Homo sapiens, UniProt Q9GZQ4); assay: FLIPR calcium mobilization assay, human NMUR2-expressing cell line
T3 construct: expressed in transfected cells; host or cells: FLP-In CHO cells and HEK-293 FLP-In cells (pcDNA5)
Source text: as §1, §2, §3, §4, §5

[4] = biological target: T4, dog NMUR2 (Canis lupus familiaris, UniProt A0A8I3MN59); assay: FLIPR calcium mobilization assay, dog NMUR2 cell line
T4 construct: expressed in transfected cells
Source text: as §1, §2, §3, §4, §5

[5] = biological target: T5, mouse NMUR1-ATG (Mus musculus, UniProt O55040); assay: FLIPR calcium mobilization assay, mouse NMUR1-ATG cell line
T5 construct: expressed in transfected cells; host or cells: FLP-In CHO cells and HEK-293 FLP-In cells (pcDNA5)
T5 sequence (O55040 1-428): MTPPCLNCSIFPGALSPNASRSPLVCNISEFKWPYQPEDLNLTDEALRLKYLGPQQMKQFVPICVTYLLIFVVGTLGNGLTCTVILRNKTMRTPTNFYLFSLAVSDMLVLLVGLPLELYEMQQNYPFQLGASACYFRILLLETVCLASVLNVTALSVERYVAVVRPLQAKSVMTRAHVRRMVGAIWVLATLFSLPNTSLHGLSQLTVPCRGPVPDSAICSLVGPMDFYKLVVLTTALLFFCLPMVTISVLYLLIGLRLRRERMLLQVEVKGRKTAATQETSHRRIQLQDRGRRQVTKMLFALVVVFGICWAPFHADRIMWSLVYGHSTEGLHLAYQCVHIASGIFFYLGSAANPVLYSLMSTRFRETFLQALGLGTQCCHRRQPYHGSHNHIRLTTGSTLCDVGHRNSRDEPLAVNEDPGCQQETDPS
Source text: as §1, §2, §3, §4, §5

T1 sequence (Q8BZ39 whole entry): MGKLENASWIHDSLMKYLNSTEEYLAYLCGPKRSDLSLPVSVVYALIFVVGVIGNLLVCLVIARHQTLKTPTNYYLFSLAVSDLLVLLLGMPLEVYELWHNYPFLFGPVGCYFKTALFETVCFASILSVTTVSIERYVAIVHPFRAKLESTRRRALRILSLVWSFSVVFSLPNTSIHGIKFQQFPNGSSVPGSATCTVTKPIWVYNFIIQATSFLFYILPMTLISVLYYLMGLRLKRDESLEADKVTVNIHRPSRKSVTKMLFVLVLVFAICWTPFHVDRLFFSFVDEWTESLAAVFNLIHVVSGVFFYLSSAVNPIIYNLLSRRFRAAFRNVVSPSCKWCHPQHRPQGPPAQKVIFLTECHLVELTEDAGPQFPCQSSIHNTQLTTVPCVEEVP
T3 sequence (Q9GZQ4 whole entry): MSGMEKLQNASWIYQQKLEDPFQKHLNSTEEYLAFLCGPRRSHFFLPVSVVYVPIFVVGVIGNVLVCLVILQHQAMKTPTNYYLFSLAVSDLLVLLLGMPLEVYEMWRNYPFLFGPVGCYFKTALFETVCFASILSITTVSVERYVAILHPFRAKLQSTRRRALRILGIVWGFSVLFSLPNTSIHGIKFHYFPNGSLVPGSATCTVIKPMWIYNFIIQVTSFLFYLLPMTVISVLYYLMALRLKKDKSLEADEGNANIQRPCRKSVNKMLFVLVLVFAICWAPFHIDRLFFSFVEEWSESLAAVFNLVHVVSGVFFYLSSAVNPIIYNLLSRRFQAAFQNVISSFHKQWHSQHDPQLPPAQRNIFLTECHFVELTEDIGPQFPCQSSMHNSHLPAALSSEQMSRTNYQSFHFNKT
T4 sequence (A0A8I3MN59 1-378): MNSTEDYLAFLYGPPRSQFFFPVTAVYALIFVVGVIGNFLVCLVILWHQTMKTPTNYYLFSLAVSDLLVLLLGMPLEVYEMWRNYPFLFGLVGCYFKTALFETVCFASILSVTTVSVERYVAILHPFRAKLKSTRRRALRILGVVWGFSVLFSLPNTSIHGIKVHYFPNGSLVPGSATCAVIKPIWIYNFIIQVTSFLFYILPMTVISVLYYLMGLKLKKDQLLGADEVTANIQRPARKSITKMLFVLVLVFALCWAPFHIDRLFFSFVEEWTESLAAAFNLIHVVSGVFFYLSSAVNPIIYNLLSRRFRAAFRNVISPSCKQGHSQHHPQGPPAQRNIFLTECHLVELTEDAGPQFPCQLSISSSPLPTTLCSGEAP

EC50 ([1]; mouse NMUR2, FLIPR): 7.8 nM
% Activity ([1]; mouse NMUR2, maximum response at 1 μM compared to the human NMU-25 response at the same concentration): 111%
EC50 ([2]; human NMUR1, FLIPR): 6.7 nM
% Activity ([2]; human NMUR1, maximum response at 1 μM compared to the human NMU-25 response at the same concentration): 97%
EC50 ([3]; human NMUR2, FLIPR): 12.6 nM
% Activity ([3]; human NMUR2, maximum response at 1 μM compared to the human NMU-25 response at the same concentration): 107%
EC50 ([4]; dog NMUR2, FLIPR): 1 nM
% Activity ([4]; dog NMUR2, maximum response at 1 μM compared to the human NMU-25 response at the same concentration): 104%
EC50 ([5]; FLIPR): 7 nM
% Activity ([5]; maximum response at 1 μM compared to the human NMU-25 response at the same concentration): 102%
Substance: H-ILQRGSGTAAVDFTKKDHTATWGRPFFLFRPRN-NH2 [NMS, reference compound]
